In PMC6979384, “Characterization of the plant homeodomain (PHD) reader family for their histone tail interactions” (Epigenetics & Chromatin, 2020):

Legend:
Assay in all cases: Histone peptide microarray
Format in all cases: binding, human
Settings in all cases: histone peptide array, arrays performed twice, n of 4
AIRE (PP) = tested on: AIRE (PP)
Procedure, shortened: (§1)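 Binding read as mean relative signal from 4 replicates; microarray held 293 synthetic histone peptides with single or combinatorial PTMs. Each GST-tagged PHD reader was applied at 0.5 μM using the optimized Petell protocol.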

BAZ2B = tested on: BAZ2B
Procedure, shortened: as §1

BPTF (PB) = tested on: BPTF (PB)
Procedure, shortened: as §1

CHD4 (PPCC) = tested on: CHD4 (PPCC)
Procedure, shortened: as §1

CHD5 (PCC) = tested on: CHD5 (PCC)
Procedure, shortened: as §1

CHD5 (PPCC) = tested on: CHD5 (PPCC)
Procedure, shortened: as §1

DIDO1 = tested on: DIDO1
Procedure, shortened: as §1

DPF2 (PPC2W2) = tested on: DPF2 (PPC2W2)
Procedure, shortened: as §1

ING1 = tested on: ING1
Procedure, shortened: as §1

ING2 = tested on: ING2
Procedure, shortened: as §1

ING3 = tested on: ING3
Procedure, shortened: as §1

ING4 = tested on: ING4
Procedure, shortened: as §1

ING5 = tested on: ING5
Procedure, shortened: as §1

KDM4C (TTP) = tested on: KDM4C (TTP)
Procedure, shortened: as §1

KDM5A (1) = tested on: KDM5A (1)
Procedure, shortened: as §1

KDM5A (3) = tested on: KDM5A (3)
Procedure, shortened: as §1

KDM5B (1) = tested on: KDM5B (1)
Procedure, shortened: as §1

KDM5B (3) = tested on: KDM5B (3)
Procedure, shortened: as §1

KDM7A = tested on: KDM7A
Procedure, shortened: as §1

MLL5 = tested on: MLL5
Procedure, shortened: as §1

MORC3 (CW) = tested on: MORC3 (CW)
Procedure, shortened: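 GST-PHD reader, 0.5 μM, probed on 293-peptide histone array (single/combinatorial PTMs); optimized array protocol; signal = mean ± SD, n = 4.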

PHF13 = tested on: PHF13
Procedure, shortened: as §1

PHF21A = tested on: PHF21A
Procedure, shortened: as §1

PHF23 = tested on: PHF23
Procedure, shortened: as §1

PHF2 = tested on: PHF2
Procedure, shortened: as §1

PHF8 = tested on: PHF8
Procedure, shortened: as §1

PHRF1 (RP) = tested on: PHRF1 (RP)
Procedure, shortened: as §1

RAG2 = tested on: RAG2
Procedure, shortened: as §1

SP140L = tested on: SP140L
Procedure, shortened: as §1

TAF3 = tested on: TAF3
Procedure, shortened: as §1

TRIM66 (PB) = tested on: TRIM66 (PB)
Procedure, shortened: as §1

[1] = GST-tagged BPTF (PB = PHD + Bromodomain)
[2] = GST-tagged CHD4 (PPCC = Dual PHD + Dual Chromodomain)
[3] = GST-tagged CHD5 (PCC = PHD + Dual Chromodomain)
[4] = GST-tagged CHD5 (PPCC = Dual PHD + Dual Chromodomain)
[5] = GST-tagged DPF2 (PPC2W2 = Dual PHD + C2W2-type Zn-finger)
[6] = GST-tagged KDM4C (TTP = Tandem Tudor domain + PHD)
[7] = GST-tagged MORC3 (CW = CW-type Zn-finger)
[8] = GST-tagged TRIM66 (PB = PHD + Bromodomain)
[9] = GST-tagged reader, PB = PHD + Bromodomain
[10] = GST-tagged reader, PPCC = Dual PHD + Dual Chromodomain

H4 (11-27): H4 11-27
Array Heatmap signal, AIRE (PP) (AIRE (PP); GST-tagged AIRE (PP)): 0.4611
Array Heatmap signal, BAZ2B (BAZ2B; GST-tagged BAZ2B): 0.4866
Array Heatmap signal, BPTF (PB) (BPTF (PB); [1]): 0.3518
Array Heatmap signal, CHD4 (PPCC) (CHD4 (PPCC); [2]): 0.6032
Array Heatmap signal, CHD5 (PCC) (CHD5 (PCC); [3]): 0.8335
Array Heatmap signal, CHD5 (PPCC) (CHD5 (PPCC); [4]): 0.5646
Array Heatmap signal, DIDO1 (DIDO1; GST-tagged DIDO1): 0.7393
Array Heatmap signal, DPF2 (PPC2W2) (DPF2 (PPC2W2); [5]): 0.705
Array Heatmap signal, ING1 (ING1; GST-tagged ING1): 0.5543
Array Heatmap signal, ING2 (ING2; GST-tagged ING2): 0.6025
Array Heatmap signal, ING3 (ING3; GST-tagged ING3): 0.5001
Array Heatmap signal, ING4 (ING4; GST-tagged ING4): 0.4682
Array Heatmap signal, ING5 (ING5; GST-tagged ING5): 0.3644
Array Heatmap signal, KDM4C (TTP) (KDM4C (TTP); [6]): 0.4895
Array Heatmap signal, KDM5A (1) (KDM5A (1); GST-tagged KDM5A (1)): 0.4724
Array Heatmap signal, KDM5A (3) (KDM5A (3); GST-tagged KDM5A (3)): 0.4231
Array Heatmap signal, KDM5B (1) (KDM5B (1); GST-tagged KDM5B (1)): 0.652
Array Heatmap signal, KDM5B (3) (KDM5B (3); GST-tagged KDM5B (3)): 0.4786
Array Heatmap signal, KDM7A (KDM7A; GST-tagged KDM7A): 0.3743
Array Heatmap signal, MLL5 (MLL5; GST-tagged MLL5): 0.5751
Array Heatmap signal, MORC3 (CW) (MORC3 (CW); [7]): 0.3632
Array Heatmap signal, PHF13 (PHF13; GST-tagged PHF13): 0.6301
Array Heatmap signal, PHF21A (PHF21A; GST-tagged PHF21A): 0.4899
Array Heatmap signal, PHF23 (PHF23; GST-tagged PHF23): 0.5647
Array Heatmap signal, PHF2 (PHF2; GST-tagged PHF2): 0.5451
Array Heatmap signal, PHF8 (PHF8; GST-tagged PHF8): 0.3468
Array Heatmap signal, PHRF1 (RP) (PHRF1 (RP); GST-tagged PHRF1 (RP)): 0.4565
Array Heatmap signal, RAG2 (RAG2; GST-tagged RAG2): 0.2544
Array Heatmap signal, SP140L (SP140L; GST-tagged SP140L): 0.3427
Array Heatmap signal, TAF3 (TAF3; GST-tagged TAF3): 0.2827
Array Heatmap signal, TRIM66 (PB) (TRIM66 (PB); [8]): 0.6367

H4K5K8but (1-23): H4 1-23
Array Heatmap signal, AIRE (PP) (AIRE (PP); GST-tagged reader): 0.5575
Array Heatmap signal, BAZ2B (BAZ2B; GST-tagged reader): 0.52
Array Heatmap signal, BPTF (PB) (BPTF (PB); [9]): 0.3688
Array Heatmap signal, CHD4 (PPCC) (CHD4 (PPCC); [10]): 0.6049
Array Heatmap signal, CHD5 (PCC) (CHD5 (PCC); GST-tagged reader, PCC = PHD + Dual Chromodomain): 0.8285
Array Heatmap signal, CHD5 (PPCC) (CHD5 (PPCC); [10]): 0.592
Array Heatmap signal, DIDO1 (DIDO1; GST-tagged reader): 0.6112
Array Heatmap signal, DPF2 (PPC2W2) (DPF2 (PPC2W2); GST-tagged reader, PPC2W2 = Dual PHD + C2W2-type Zn-finger): 0.658
Array Heatmap signal, ING1 (ING1; GST-tagged reader): 0.5231
Array Heatmap signal, ING2 (ING2; GST-tagged reader): 0.5955
Array Heatmap signal, ING3 (ING3; GST-tagged reader): 0.4809
Array Heatmap signal, ING4 (ING4; GST-tagged reader): 0.4968
Array Heatmap signal, ING5 (ING5; GST-tagged reader): 0.3968
Array Heatmap signal, KDM4C (TTP) (KDM4C (TTP); GST-tagged reader, TTP = Tandem Tudor domain + PHD): 0.558
Array Heatmap signal, KDM5A (1) (KDM5A (1); GST-tagged reader): 0.515
Array Heatmap signal, KDM5A (3) (KDM5A (3); GST-tagged reader): 0.457
Array Heatmap signal, KDM5B (1) (KDM5B (1); GST-tagged reader): 0.7062
Array Heatmap signal, KDM5B (3) (KDM5B (3); GST-tagged reader): 0.5218
Array Heatmap signal, KDM7A (KDM7A; GST-tagged reader): 0.4497
Array Heatmap signal, MLL5 (MLL5; GST-tagged reader): 0.5399
Array Heatmap signal, MORC3 (CW) (MORC3 (CW); GST-tagged reader, CW = CW-type Zn-finger): 0.3933
Array Heatmap signal, PHF13 (PHF13; GST-tagged reader): 0.6376
Array Heatmap signal, PHF21A (PHF21A; GST-tagged reader): 0.5071
Array Heatmap signal, PHF23 (PHF23; GST-tagged reader): 0.5226
Array Heatmap signal, PHF2 (PHF2; GST-tagged reader): 0.4396
Array Heatmap signal, PHF8 (PHF8; GST-tagged reader): 0.4044
Array Heatmap signal, PHRF1 (RP) (PHRF1 (RP); GST-tagged reader): 0.4216
Array Heatmap signal, RAG2 (RAG2; GST-tagged reader): 0.2516
Array Heatmap signal, SP140L (SP140L; GST-tagged reader): 0.399
Array Heatmap signal, TAF3 (TAF3; GST-tagged reader): 0.2895
Array Heatmap signal, TRIM66 (PB) (TRIM66 (PB); [9]): 0.5587

H4K5ac + K8ac + K12ac + K16ac: H4 1-23
Array Heatmap signal, AIRE (PP) (AIRE (PP); GST-tagged AIRE (PP)): 0.5646
Array Heatmap signal, BAZ2B (BAZ2B; GST-tagged BAZ2B): 0.5369
Array Heatmap signal, BPTF (PB) (BPTF (PB); [1]): 0.4178
Array Heatmap signal, CHD4 (PPCC) (CHD4 (PPCC); [2]): 0.5585
Array Heatmap signal, CHD5 (PCC) (CHD5 (PCC); [3]): 0.8346
Array Heatmap signal, CHD5 (PPCC) (CHD5 (PPCC); [4]): 0.5534
Array Heatmap signal, DIDO1 (DIDO1; GST-tagged DIDO1): 0.6106
Array Heatmap signal, DPF2 (PPC2W2) (DPF2 (PPC2W2); [5]): 0.6508
Array Heatmap signal, ING1 (ING1; GST-tagged ING1): 0.4878
Array Heatmap signal, ING2 (ING2; GST-tagged ING2): 0.572
Array Heatmap signal, ING3 (ING3; GST-tagged ING3): 0.4391
Array Heatmap signal, ING4 (ING4; GST-tagged ING4): 0.4555
Array Heatmap signal, ING5 (ING5; GST-tagged ING5): 0.371
Array Heatmap signal, KDM4C (TTP) (KDM4C (TTP); [6]): 0.5368
Array Heatmap signal, KDM5A (1) (KDM5A (1); GST-tagged KDM5A (1)): 0.4894
Array Heatmap signal, KDM5A (3) (KDM5A (3); GST-tagged KDM5A (3)): 0.4106
Array Heatmap signal, KDM5B (1) (KDM5B (1); GST-tagged KDM5B (1)): 0.7197
Array Heatmap signal, KDM5B (3) (KDM5B (3); GST-tagged KDM5B (3)): 0.5025
Array Heatmap signal, KDM7A (KDM7A; GST-tagged KDM7A): 0.4726
Array Heatmap signal, MLL5 (MLL5; GST-tagged MLL5): 0.5322
Array Heatmap signal, MORC3 (CW) (MORC3 (CW); [7]): 0.3746
Array Heatmap signal, PHF13 (PHF13; GST-tagged PHF13): 0.598
Array Heatmap signal, PHF21A (PHF21A; GST-tagged PHF21A): 0.4657
Array Heatmap signal, PHF23 (PHF23; GST-tagged PHF23): 0.4802
Array Heatmap signal, PHF2 (PHF2; GST-tagged PHF2): 0.443
Array Heatmap signal, PHF8 (PHF8; GST-tagged PHF8): 0.3604
Array Heatmap signal, PHRF1 (RP) (PHRF1 (RP); GST-tagged PHRF1 (RP)): 0.436
Array Heatmap signal, RAG2 (RAG2; GST-tagged RAG2): 0.2398
Array Heatmap signal, SP140L (SP140L; GST-tagged SP140L): 0.3494
Array Heatmap signal, TAF3 (TAF3; GST-tagged TAF3): 0.2729
Array Heatmap signal, TRIM66 (PB) (TRIM66 (PB); [8]): 0.6818
